In experiment [1] the test system is Alternaria brassicicola. The settings on record: cited from earlier work.
Experiment [2] has as its system Magnaporthe grisea (teleomorph: Pyricularia oryzae). The settings on record: 1000 ppm; cited from earlier work.
Another experiment relates to Acidovorax citrulli. The settings on record: cited from earlier work.
In another experiment the test system is Ralstonia solanacearum. The settings on record: cited from earlier work.
Experiment [3] has as its system Xanthomonas euvesicatoria. The settings on record: cited from earlier work.
Experiment [4] concerns Alternaria brassicicola. As to the kind of experiment: Conidial germination of Alternaria brassicicola on slides in a moist chamber. Type of experiment: cell-based. The settings on record: 24 hours; for Conidial germination rate (%) in different diluted condition 1000X: diluted 1000 times; for Conidial germination rate (%) in different diluted condition 1500X: diluted 1500 times; for Conidial germination rate (%) in different diluted condition 2000X: diluted 2000 times. On the procedure:
The tables differ only in how the gallnut and myrobalan are presented. For Table 1-1, gallnut and myrobalan are presented in vol % as described earlier for the Row 6 procedure while Table 1-2 presents the active ingredients of gallnut and myrobalan as concentration (grams/ml). One drop of 20 μl of pathogen conidia suspension (100 conidia per microliter) was mixed with one drop of 20 μl for each of the eight combinations of gallnut and myrobalan formulations, and at dilutions of 750 times, 1000 times, and 1500 times. Each combination was placed on test slides that were maintained at 100% relative humidity at room temperature. The germination rate of 100 conidia on each slide was calculated visually using a microscope following an incubation period of 24 hours. Tables 2-1 and 2-2 show the same plant extract formulations as in Table 1 but including the addition of a surfactant; specifically, either yucca plant extract (Yucca […]) or sodium lauryl sulfate (SLS). Each was added for testing conidial germinations of Alternaria brassicicola. Dilutions were at 1000 times, 1500 times and 2000 times water. 10 vol % of yucca extract or 5 wt. % of SLS was added to the formulations and then used to test the inhibitory effects on conidial germination on the same fungal pathogen Alternaria brassicicola.

Where [5] appears, read: Table 2-2, with surfactant (gms/ml per 100 ml).

SMILES strings stand for the structures.

On to `O=C(O)c1cc(O)c(O)c(O)c1` [gallic acid, 3,4,5-trihydroxybenzoic acid], for which the “inhibition of conidial germination” value in the experiment on Alternaria brassicicola [1] was “effectively inhibit”. Besides, in experiment [2], the conidial germination result is reported as “stop” and the “intrusive behavior of the germinated conidia” value is reported as “stop”.
Take `COC(=O)c1cc(O)c(O)c(O)c1` [methyl gallate]: the “kill or inhibit the pathogen” value (in the experiment with Acidovorax citrulli; with Ralstonia solanacearum; in experiment [3]) was “kill or inhibit” throughout. In experiment [2], the conidial germination entry is “stop”. The “intrusive behavior of the germinated conidia” value in experiment [2] is “stop”.
As to `CCCCCCCCCCCCOS(=O)(=O)[O-].[Na+]` [sodium lauryl sulfate], in the experiment with Alternaria brassicicola [4] (Table 2-1, with surfactant), the “Conidial germination rate (%) in different diluted condition 1000X” value is 55%, the “Conidial germination rate (%) in different diluted condition 1500X” value is 90% and the “Conidial germination rate (%) in different diluted condition 2000X” value stood at 94%. In addition, in the experiment with Alternaria brassicicola [4] (setting [5]), the “Conidial germination rate (%) in different diluted condition 1000X” value turned out to be 55%, the “Conidial germination rate (%) in different diluted condition 1500X” value was 90% and the “Conidial germination rate (%) in different diluted condition 2000X” value was 94%.
